Reference: PubChem BioAssay (NCI)
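Test compounds were applied to cells in 96-well plates for 48 hours at 5 doses. At the GI50, growth is halved. TGI is the concentration that stops growth completely.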

Tests used:
Assay in all cases: inhibition of tumour cell growth, NCI panel, 48 h
[1] = system: IGROV1 ovarian
[2] = system: KM12 colon
[3] = system: NCI-H522 lung
[4] = system: OVCAR-3 ovarian
[5] = system: OVCAR-4 ovarian
[6] = system: RXF 393 renal
[7] = system: SK-MEL-2 melanoma
[8] = system: SR leukemia
[9] = system: UACC-257 melanoma
[10] = system: UO-31 renal

Compound	GI50 [1]	TGI [1]	GI50 [2]	TGI [2]	GI50 [3]	TGI [3]	GI50 [4]	TGI [4]	GI50 [5]	TGI [5]	GI50 [6]	TGI [6]	GI50 [7]	TGI [7]	GI50 [8]	TGI [8]	GI50 [9]	TGI [9]	GI50 [10]	TGI [10]
Cc1cc(O)c(C2=NN(c3ccc(S(N)(=O)=O)cc3)C(/C=C/c3ccccc3)C2)cc1Cl (stereo not given)	4.32 µM	19.8 µM	11.7 µM	34.8 µM	4.62 µM	19.4 µM	11.5 µM	28.4 µM	3.74 µM	18.9 µM	6.69 µM	20.2 µM	16.8 µM	58.2 µM	12.7 µM	33.8 µM	14.5 µM	45.7 µM	15.2 µM	34.9 µM
O=C1CCCCC12CCC/C2=N\O (stereo not given)	–	> 100 µM	–	> 100 µM	–	> 100 µM	–	> 100 µM	–	> 100 µM	–	> 100 µM	–	> 100 µM	–	> 100 µM	–	> 100 µM	–	> 100 µM
CC(=O)NC(C=O)C(O[C@H](C)C(=O)NC(C)C(=O)NC(CCC(N)=O)C(=O)OCc1ccccc1)C(O)C(O)COC(=O)CCNc1c2ccccc2nc2cccc([N+](=O)[O-])c12 (stereo not given in full)	–	> 100 µM	–	3.75 µM	–	4.49 µM	–	4.01 µM	–	25.3 µM	–	12 µM	–	3.05 µM	–	2.69 µM	–	20.3 µM	–	35.9 µM
C[C@@H](CO)NC(=O)c1cc(-c2ccc(Cl)cc2)nn(-c2cnn(C)c2)c1=O	20.2 µM	82.1 µM	59.9 µM	> 100 µM	14.4 µM	35.7 µM	45.5 µM	> 100 µM	45.9 µM	> 100 µM	7.79 µM	45.8 µM	59.9 µM	> 100 µM	18.2 µM	> 100 µM	30.6 µM	> 100 µM	7.79 µM	57.4 µM
COc1ccc(C(=O)c2sc3nc(-c4cccs4)ccc3c2N)cc1OC	7.72 µM	> 100 µM	4.42 µM	> 100 µM	2.86 µM	95.8 µM	6.78 µM	> 100 µM	6.75 µM	> 100 µM	9.98 µM	> 100 µM	3.29 µM	19.2 µM	3.26 µM	22.7 µM	8.51 µM	> 100 µM	4.56 µM	> 100 µM
COc1c(N2CCN(CN3C(=O)C(=O)c4cc(Cl)ccc43)C(C)C2)c(F)cc2c(=O)c(C(=O)O)cn(C3CC3)c12 (stereo not given)	> 100 µM	> 100 µM	35.2 µM	> 100 µM	> 100 µM	> 100 µM	30 µM	> 100 µM	55.5 µM	> 100 µM	34.4 µM	> 100 µM	> 100 µM	> 100 µM	4.51 µM	> 100 µM	27.7 µM	72.9 µM	> 100 µM	> 100 µM
COc1cc(C)c2sc3ccccc3c(=O)c2c1NCCN(C)C	3.56 µM	14.5 µM	5.22 µM	18.9 µM	4.91 µM	17.9 µM	10.5 µM	23.9 µM	8.08 µM	20.9 µM	2.4 µM	9.41 µM	6.64 µM	19.6 µM	2.79 µM	7.91 µM	2.06 µM	3.97 µM	3.46 µM	16.1 µM
O=C(CC1C=Cc2ccccc2N1C(=O)c1ccccc1)c1ccccc1 (stereo not given)	–	> 100 µM	–	61.8 µM	–	53.2 µM	–	34.7 µM	–	> 100 µM	–	> 100 µM	–	38.8 µM	–	35.4 µM	–	61.3 µM	–	> 100 µM
CN(CCCCCl)P(=O)(OCc1ccc([N+](=O)[O-])o1)OCC1OC(n2cnc([N+](=O)[O-])c2N)C(O)C1O (stereo not given)	> 100 µM	> 100 µM	90.7 µM	> 100 µM	> 100 µM	> 100 µM	> 100 µM	> 100 µM	> 100 µM	> 100 µM	> 100 µM	> 100 µM	> 100 µM	> 100 µM	0.924 µM	> 100 µM	> 100 µM	> 100 µM	> 100 µM	> 100 µM
O=C(CCCN1CCC(C(O)c2ccc(F)cc2)CC1)c1ccc(F)cc1 (stereo not given)	–	130 µM	–	116 µM	–	139 µM	–	116 µM	–	134 µM	–	98.3 µM	–	113 µM	–	201 µM	–	121 µM	–	79.3 µM
CC(=O)Nc1n[n+]([O-])c2cc(C)ccc2[n+]1[O-]	–	5.33 µM	–	11.3 µM	–	5.53 µM	–	7.77 µM	–	18 µM	–	22.6 µM	–	26.5 µM	–	> 100 µM	–	18.7 µM	–	17.2 µM
N#CC(C#N)=C/C=C(\Sc1ccc(F)cc1Cl)c1ccc(Cl)cc1	1.81 µM	> 54.5 µM	0.714 µM	2.79 µM	1.93 µM	10.8 µM	0.762 µM	2.64 µM	4.97 µM	> 64.2 µM	2.94 µM	> 100 µM	1.45 µM	8.17 µM	0.0756 µM	> 100 µM	1.8 µM	4.76 µM	1.78 µM	> 40.3 µM
Cn1cc(C2=C(Nc3ccccc3)C(=O)NC2=O)c2ccccc21	> 25 µM	> 25 µM	17 µM	> 25 µM	24.6 µM	> 25 µM	> 25 µM	> 25 µM	> 21.8 µM	> 25 µM	> 25 µM	> 25 µM	> 25 µM	> 25 µM	> 25 µM	> 25 µM	> 25 µM	> 25 µM	> 19.5 µM	> 25 µM
CN(C)c1ccc(/C=N/S(=O)(=O)c2ccc(-n3c(-c4ccccc4)nc4c(Br)cc(Br)cc4c3=O)cc2)cc1	25.6 µM	> 100 µM	32.3 µM	> 100 µM	32.2 µM	> 97 µM	34.2 µM	> 100 µM	30.3 µM	97.3 µM	50.2 µM	> 100 µM	23.6 µM	> 96.1 µM	1 µM	14.9 µM	44.6 µM	> 100 µM	32.6 µM	> 100 µM
